For seven compounds, GI50 and TGI results are on record in PubChem BioAssay (NCI).

Some test systems named below: SK-OV-3 ovarian; HS 578T breast; KM12 colon; OVCAR-8 ovarian; SN12C renal; EKVX NSCLC; UO-31 renal; SF-268 CNS; HOP-62 NSCLC; OVCAR-4 ovarian.
What all share (test): NCI anticancer screen, dose series, 48 h

Each structure is given as a SMILES string.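 Growth conditions: 96-well plates. Treatment: test compound, 48 hours, 5 concentrations. Analysis: linear interpolation between bracketing concentrations; unreached endpoints set to highest concentration. Here, GI50 denotes the concentration required for 50% inhibition of growth. TGI is the concentration that stops growth completely.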

As for `Cc1cc(-c2cc(O)ccc2Cl)cc2nnc(Nc3ccc(OCCN4CCCC4)cc3)nc12`, the GI50 is 1.3 µM in the test on SK-OV-3 ovarian; 1.54 µM with HS 578T breast; 0.617 µM in the test with KM12 colon; 0.705 µM in the test with OVCAR-8 ovarian; 1.47 µM in the test on SN12C renal; 1.57 µM with EKVX NSCLC. Besides, the GI50 with UO-31 renal is 1.3 µM; in the test on SF-268 CNS, 1.99 µM; with HOP-62 NSCLC, 1.88 µM; in the test on OVCAR-4 ovarian, 0.615 µM. Moreover, the TGI worked out at 2.8 µM in the test with SK-OV-3 ovarian; 3.83 µM in the test on HS 578T breast; 1.32 µM in the test on KM12 colon; 1.56 µM in the test with OVCAR-8 ovarian; 3.03 µM in the test on SN12C renal; 3.27 µM in the test with EKVX NSCLC. Also, the TGI with UO-31 renal is 2.73 µM; with SF-268 CNS, 3.91 µM; in the test with HOP-62 NSCLC, 3.79 µM; in the test on OVCAR-4 ovarian, 1.3 µM.
`CCCCCCCCCCCCOC1C(CNC(=O)C2OC3OC(C)(C)OC3C2NC(=O)CN2CCN(c3ccc(OC)cc3)CC2)OC2OC(C)(C)OC21` (centres undefined): the GI50 in the test on SK-OV-3 ovarian was 5.87 µM; with HS 578T breast, 3.78 µM; with KM12 colon, 3.35 µM; in the test with OVCAR-8 ovarian, 3.91 µM; with SN12C renal, 3.41 µM; in the test on EKVX NSCLC it was 5.46 µM. For the same compound, the GI50 in the test on UO-31 renal is 3.36 µM; in the test with SF-268 CNS it was 3.12 µM; with HOP-62 NSCLC, 5.07 µM; with OVCAR-4 ovarian, 3.83 µM. Moreover, the TGI in the test on SK-OV-3 ovarian was 17.7 µM; in the test on HS 578T breast it was 17 µM; with KM12 colon it was 10.9 µM; with OVCAR-8 ovarian, 12.9 µM; in the test with SN12C renal it was 11.7 µM; with EKVX NSCLC, 17 µM. Moreover, the TGI was 13.4 µM in the test on UO-31 renal, 11.5 µM with SF-268 CNS, 20.5 µM in the test on HOP-62 NSCLC and 15.8 µM in the test with OVCAR-4 ovarian.
Turning to `CCNC(=O)Oc1ccc(/C(=C(/C)Cc2ccc(OC)cc2)c2ccc(OCCN(CC)CC)cc2)cc1`, the GI50 was 2.84 µM in the test with SK-OV-3 ovarian; 2.18 µM with HS 578T breast; 2.01 µM with KM12 colon; 1.8 µM in the test on OVCAR-8 ovarian; 1.93 µM in the test on SN12C renal; 1.7 µM with EKVX NSCLC. The GI50 with UO-31 renal is 1.52 µM; in the test on SF-268 CNS, 1.98 µM; with HOP-62 NSCLC, 1.68 µM; in the test on OVCAR-4 ovarian, 2.31 µM. Besides, the TGI in the test with SK-OV-3 ovarian is 13.3 µM; in the test with HS 578T breast, 5.16 µM; in the test on KM12 colon it was 4.58 µM; with OVCAR-8 ovarian it was 3.59 µM; with SN12C renal it was 3.82 µM; in the test with EKVX NSCLC, 5.03 µM. The TGI in the test on UO-31 renal came out at 3.02 µM; in the test with SF-268 CNS it was 4.75 µM; with HOP-62 NSCLC, 4.14 µM; in the test with OVCAR-4 ovarian it was 7.84 µM.
Turning to `O=C(CCN1CCCCC1)N1CCc2c([nH]c3ccccc23)C1c1cccnc1` (centres undefined), the TGI in the test with SK-OV-3 ovarian was greater than 100 µM; in the test with HS 578T breast, greater than 100 µM; in the test on KM12 colon it was greater than 100 µM; with OVCAR-8 ovarian it was greater than 100 µM; in the test with SN12C renal, greater than 100 µM; with EKVX NSCLC it was 98.2 µM. Moreover, the TGI in the test with UO-31 renal was 71.1 µM; in the test on SF-268 CNS, greater than 87.9 µM; in the test on HOP-62 NSCLC it was greater than 100 µM; in the test with OVCAR-4 ovarian, greater than 100 µM.
On to `C/C(=C(\c1ccc(OCCN2CCCCCC2)cc1)c1ccc(OC(=O)c2ccccc2)cc1)c1ccc(Cl)cc1`, for which the GI50 with SK-OV-3 ovarian is 4.41 µM; in the test with HS 578T breast it was 3.04 µM; in the test with KM12 colon, 3.14 µM; in the test on OVCAR-8 ovarian, 5.15 µM; in the test on SN12C renal, 4.21 µM; with EKVX NSCLC, 4.97 µM. In addition, the GI50 is 1.61 µM in the test on UO-31 renal, 3.49 µM in the test on SF-268 CNS, 4.35 µM in the test on HOP-62 NSCLC and 3.6 µM with OVCAR-4 ovarian. The TGI turned out to be 9.52 µM with SK-OV-3 ovarian; 9.76 µM in the test on HS 578T breast; 8.72 µM in the test on KM12 colon; 10.5 µM with OVCAR-8 ovarian; 9.53 µM in the test with SN12C renal; 13.9 µM with EKVX NSCLC. The TGI is 6.17 µM in the test on UO-31 renal, 9.7 µM with SF-268 CNS, 8.95 µM in the test on HOP-62 NSCLC and 9.82 µM with OVCAR-4 ovarian.
As for `Cn1c2c(c3c(Cl)nncc31)Cc1ccccc1-2`, the GI50 in the test on SK-OV-3 ovarian was 28.6 µM; in the test on HS 578T breast, 28 µM; with KM12 colon, 32.8 µM; in the test on OVCAR-8 ovarian, 25.5 µM; in the test on SN12C renal, 20.8 µM; in the test with EKVX NSCLC, 5.79 µM. For the same compound, the GI50 in the test with UO-31 renal is 31.4 µM; in the test with SF-268 CNS, 25.9 µM; with HOP-62 NSCLC, 25.2 µM; in the test on OVCAR-4 ovarian, 23.9 µM. Besides, the TGI in the test with SK-OV-3 ovarian was 75.1 µM; with HS 578T breast, greater than 100 µM; with KM12 colon, greater than 100 µM; in the test with OVCAR-8 ovarian it was greater than 100 µM; with SN12C renal it was 81.7 µM; with EKVX NSCLC, 44.3 µM. Also, the TGI in the test with UO-31 renal, in the test with SF-268 CNS, with HOP-62 NSCLC and in the test on OVCAR-4 ovarian was greater than 100 µM throughout.
Turning to `C/C=C1/CC(C)C(C)(O)C(=O)OCC2C(O)CN3CCC(OC1=O)C23` (centres undefined), the TGI in the test with SK-OV-3 ovarian, with HS 578T breast, in the test on KM12 colon, in the test with OVCAR-8 ovarian, in the test with SN12C renal and with EKVX NSCLC was greater than 100 µM each time. Also, the TGI in the test on SF-268 CNS, in the test on HOP-62 NSCLC and with OVCAR-4 ovarian was greater than 100 µM in each case.
